Experimental data: patent US10399940B2, “Substituted pyrrolidines and methods of use” (AbbVie S.à.r.l., priority 2016, dated 2019)
Like-named read-outs stand apart in the source and are kept apart here.

Molecular target: T1, F508delCFTR (Homo sapiens, UniProt P13569, DEL508-508)
T1 construct: expressed in transfected cells; host or cells: CFBE41o- (human lung derived epithelial cell line), doxycycline-inducible expression
Experiment: Cell Surface Expression-Horse Radish Peroxidase (CSE-HRP) assay
Assay type: cell-based
Conditions: CFBE41o-F508delCFTR-HRP cells; for Maximum % activity (with co-corrector): with co-corrector (2 μM); for Maximum % activity (with co-corrector) / Maximum % activity (without co-corrector): normalized to on-plate positive control, highest concentration 20 μM
How it was run: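 Surface F508delCFTR-HRP was read by luminol luminescence after 18–24 h compound exposure at 33 °C, without or with 2 μM co-corrector. Doses were eight 3-fold steps from 20 μM, in doxycycline-induced (0.5 μg/mL, 72 h) CFBE41o- cells. % activity was scaled to the on-plate 2 μM positive control minus DMSO; EC50 came from a variable-slope sigmoid fit.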

[1] = test compound without co-corrector, 18-24 hours at 33° C., read-out: EC50 (without co-corrector)
[2] = with co-corrector (2 μM of 3-[(2R,4R)-4-({[1-(2,2-difluoro-1,3-benzodioxol-5-yl)cyclopropyl]carbonyl}amino)-7-methoxy-3,4-dihydro-2H-chromen-2-yl]benzoic acid), read-out: EC50 (with co-corrector)

T1 sequence (P13569 with tags, fused parts or gaps DEL508-508): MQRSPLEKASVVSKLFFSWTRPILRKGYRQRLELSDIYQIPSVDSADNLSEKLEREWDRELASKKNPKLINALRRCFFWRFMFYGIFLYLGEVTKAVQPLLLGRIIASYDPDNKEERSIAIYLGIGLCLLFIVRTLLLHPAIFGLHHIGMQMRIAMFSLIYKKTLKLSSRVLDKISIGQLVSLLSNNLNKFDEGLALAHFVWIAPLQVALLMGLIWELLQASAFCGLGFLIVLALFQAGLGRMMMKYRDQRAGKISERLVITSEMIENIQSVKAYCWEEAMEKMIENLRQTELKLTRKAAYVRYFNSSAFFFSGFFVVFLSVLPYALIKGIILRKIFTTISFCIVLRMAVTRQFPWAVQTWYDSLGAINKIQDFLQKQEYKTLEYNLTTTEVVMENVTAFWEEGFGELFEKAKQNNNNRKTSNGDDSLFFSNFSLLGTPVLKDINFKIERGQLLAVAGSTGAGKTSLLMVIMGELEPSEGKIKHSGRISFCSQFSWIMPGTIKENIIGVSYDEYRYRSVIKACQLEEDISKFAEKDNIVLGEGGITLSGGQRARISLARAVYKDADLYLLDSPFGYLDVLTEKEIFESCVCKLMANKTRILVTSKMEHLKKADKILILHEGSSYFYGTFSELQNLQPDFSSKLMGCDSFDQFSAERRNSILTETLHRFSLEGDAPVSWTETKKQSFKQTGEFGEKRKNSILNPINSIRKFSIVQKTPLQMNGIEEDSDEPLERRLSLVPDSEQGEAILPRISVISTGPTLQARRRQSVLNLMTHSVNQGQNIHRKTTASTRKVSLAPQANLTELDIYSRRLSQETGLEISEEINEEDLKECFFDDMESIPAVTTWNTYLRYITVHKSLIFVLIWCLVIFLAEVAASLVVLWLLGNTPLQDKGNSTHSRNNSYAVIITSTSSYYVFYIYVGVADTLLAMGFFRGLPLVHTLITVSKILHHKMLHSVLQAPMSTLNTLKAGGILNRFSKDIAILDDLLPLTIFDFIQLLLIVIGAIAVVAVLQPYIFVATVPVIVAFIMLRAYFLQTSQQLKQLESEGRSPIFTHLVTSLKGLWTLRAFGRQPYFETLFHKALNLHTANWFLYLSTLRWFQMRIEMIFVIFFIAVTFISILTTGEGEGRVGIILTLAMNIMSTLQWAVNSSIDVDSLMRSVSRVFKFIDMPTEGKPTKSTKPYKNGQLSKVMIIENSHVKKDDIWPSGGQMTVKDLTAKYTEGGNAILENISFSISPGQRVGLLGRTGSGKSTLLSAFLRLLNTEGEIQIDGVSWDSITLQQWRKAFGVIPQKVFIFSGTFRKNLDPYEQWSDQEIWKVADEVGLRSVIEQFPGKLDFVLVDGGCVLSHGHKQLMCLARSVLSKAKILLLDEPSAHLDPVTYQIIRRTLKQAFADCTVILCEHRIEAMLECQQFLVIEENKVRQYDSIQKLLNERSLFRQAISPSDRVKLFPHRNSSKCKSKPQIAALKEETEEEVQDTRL

EC50 [1]	EC50 [2]	Maximum % activity (with co-corrector)	Maximum % activity (without co-corrector)	Compound
< 1000 nM	< 1000 nM	++ (≥150 and <350)	+ (<100)	COc1ncc(C(F)(F)F)cc1CO[C@H]1[C@H](C(C)(C)C)[C@@H](C(=O)O)N(C(=O)OC(C)C)[C@H]1c1cccc(C(C)(C)C)c1 [Example 153, (2S,3R,4S,5S)-3-tert-butyl-5-(3-tert-butylphenyl)-4-{[2-methoxy-5-(trifluoromethyl)pyridin-3-yl]methoxy}-1-{[(propan-2-yl)oxy]carbonyl}pyrrolidine-2-carboxylic acid]
< 1000 nM	< 1000 nM	++ (≥150 and <350)	+ (<100)	COc1ncc(C(F)(F)F)cc1CO[C@H]1[C@H](C(C)(C)C)[C@@H](C(=O)O)N(C(=O)[C@H]2C[C@@H]3CC[C@H]2O3)[C@H]1c1cccc(C(C)(C)C)c1 [Example 154, (2S,3R,4S,5S)-3-tert-butyl-5-(3-tert-butylphenyl)-4-{[2-methoxy-5-(trifluoromethyl)pyridin-3-yl]methoxy}-1-[(1R,2S,4S)-7-oxabicyclo[2.2.1]heptane-2-carbonyl]pyrrolidine-2-carboxylic acid]
1000 to 10000 nM	< 1000 nM	+++ (≥350)	++ (≥100 and <200)	COc1ncc(C2CCC2)cc1CO[C@H]1[C@H](C(C)(C)C)[C@@H](C(=O)O)N(C(=O)[C@@H]2CCCO2)[C@H]1c1ccccc1C(F)(F)F [Example 155, (2S,3R,4S,5S)-3-tert-butyl-4-[(5-cyclobutyl-2-methoxypyridin-3-yl)methoxy]-1-[(2S)-oxolane-2-carbonyl]-5-[2-(trifluoromethyl)phenyl]pyrrolidine-2-carboxylic acid]
1000 to 10000 nM	< 1000 nM	+++ (≥350)	++ (≥100 and <200)	COc1ncc(C(F)(F)F)cc1CO[C@H]1[C@H](C(C)(C)C)[C@@H](C(=O)O)N(C(=O)[C@@H]2CCCO2)[C@H]1c1ccccc1C(F)(F)F [Example 156, (2S,3R,4S,5S)-3-tert-butyl-4-{[2-methoxy-5-(trifluoromethyl)pyridin-3-yl]methoxy}-1-[(2S)-oxolane-2-carbonyl]-5-[2-(trifluoromethyl)phenyl]pyrrolidine-2-carboxylic acid]
< 1000 nM	< 1000 nM	+++ (≥350)	++ (≥100 and <200)	COc1ncc(C(F)(F)F)cc1CO[C@H]1[C@H](C(C)(C)C)[C@@H](C(=O)O)N(C(=O)[C@@H]2CCCCO2)[C@H]1c1cccc(C(C)(C)C)c1 [Example 158, (2S,3R,4S,5S)-3-tert-butyl-5-(3-tert-butylphenyl)-4-{[2-methoxy-5-(trifluoromethyl)pyridin-3-yl]methoxy}-1-[(2S)-oxane-2-carbonyl]pyrrolidine-2-carboxylic acid]
< 1000 nM	< 1000 nM	+++ (≥350)	+ (<100)	COc1ncc(C(F)(F)F)cc1CO[C@H]1[C@H](C(C)(C)C)[C@@H](C(=O)O)N(C(=O)[C@@H]2CCCO2)[C@H]1c1ccccc1Br [Example 159, (2S,3R,4S,5S)-5-(2-bromophenyl)-3-tert-butyl-4-{[2-methoxy-5-(trifluoromethyl)pyridin-3-yl]methoxy}-1-[(2S)-oxolane-2-carbonyl]pyrrolidine-2-carboxylic acid]
1000 to 10000 nM	1000 to 10000 nM	++ (≥150 and <350)	+ (<100)	COc1ncc(C(F)(F)F)cc1CO[C@H]1[C@H](C(C)(C)C)[C@@H](C(=O)O)N(C(=O)C2CCC2)[C@H]1c1cccnc1OC(C)C [Example 160, (2S,3R,4S,5S)-3-tert-butyl-1-(cyclobutanecarbonyl)-4-{[2-methoxy-5-(trifluoromethyl)pyridin-3-yl]methoxy}-5-{2-[(propan-2-yl)oxy]pyridin-3-yl}pyrrolidine-2-carboxylic acid]
1000 to 10000 nM	1000 to 10000 nM	+++ (≥350)	+ (<100)	COc1ncc(C2CCC2)cc1CO[C@H]1[C@H](C(C)(C)C)[C@@H](C(=O)O)N(C(=O)C2CCC2)[C@H]1c1cccnc1OC(C)C [Example 161, (2S,3R,4S,5S)-3-tert-butyl-1-(cyclobutanecarbonyl)-4-[(5-cyclobutyl-2-methoxypyridin-3-yl)methoxy]-5-{2-[(propan-2-yl)oxy]pyridin-3-yl}pyrrolidine-2-carboxylic acid]
1000 to 10000 nM	< 1000 nM	+++ (≥350)	+++ (≥200)	COc1ccc(C(C)(C)C)cc1CO[C@H]1[C@H](C(C)(C)C)[C@@H](C(=O)O)N(C(=O)[C@@H]2CCCO2)[C@H]1c1ccccc1Br [Example 162, (2S,3R,4S,5S)-5-(2-bromophenyl)-3-tert-butyl-4-[(5-tert-butyl-2-methoxyphenyl)methoxy]-1-[(2S)-oxolane-2-carbonyl]pyrrolidine-2-carboxylic acid]
> 10000 nM	> 10000 nM	+ (<150)	+ (<100)	COc1ncc(C(F)(F)F)cc1CO[C@@H]1[C@H](C(C)(C)C)[C@@H](C(=O)O)N(C(=O)C2CCCC2)[C@H]1c1cccnc1OC(C)C [Example 163, (2S,3R,4R,5S)-3-tert-butyl-1-(cyclopentanecarbonyl)-4-{[2-methoxy-5-(trifluoromethyl)pyridin-3-yl]methoxy}-5-{2-[(propan-2-yl)oxy]pyridin-3-yl}pyrrolidine-2-carboxylic acid]
> 10000 nM	> 10000 nM	+ (<150)	+ (<100)	COc1ncc(C(F)(F)F)cc1CO[C@@H]1[C@H](C(C)(C)C)[C@@H](C(=O)O)N(C(=O)C2CCCCC2)[C@H]1c1cccnc1OC(C)C [Example 164, (2S,3R,4R,5S)-3-tert-butyl-1-(cyclohexanecarbonyl)-4-{[2-methoxy-5-(trifluoromethyl)pyridin-3-yl]methoxy}-5-{2-[(propan-2-yl)oxy]pyridin-3-yl}pyrrolidine-2-carboxylic acid]
1000 to 10000 nM	1000 to 10000 nM	+++ (≥350)	++ (≥100 and <200)	COc1ncc(C2CCC2)cc1CO[C@H]1[C@H](C(C)(C)C)[C@@H](C(=O)O)N(C(=O)[C@@H]2CCCO2)[C@H]1c1ccccc1C(F)F [Example 165, (2S,3R,4S,5S)-3-tert-butyl-4-[(5-cyclobutyl-2-methoxypyridin-3-yl)methoxy]-5-[2-(difluoromethyl)phenyl]-1-[(2S)-oxolane-2-carbonyl]pyrrolidine-2-carboxylic acid]
1000 to 10000 nM	1000 to 10000 nM	+++ (≥350)	+ (<100)	COc1ncc(C2CCC2)cc1CO[C@@H]1[C@H](C(C)(C)C)[C@@H](C(=O)O)N(C(=O)OC(C)C)[C@H]1c1ccccc1Br [Example 166, (2S,3R,4R,5S)-5-(2-bromophenyl)-3-tert-butyl-4-[(5-cyclobutyl-2-methoxypyridin-3-yl)methoxy]-1-{[(propan-2-yl)oxy]carbonyl}pyrrolidine-2-carboxylic acid]
1000 to 10000 nM	1000 to 10000 nM	++ (≥150 and <350)	+ (<100)	COc1ncc(C(F)(F)F)cc1CO[C@H]1[C@H](C(C)(C)C)[C@@H](C(=O)O)N(C(=O)OC(C)C)[C@H]1c1c(F)cccc1F [Example 167, (2S,3R,4S,5S)-3-tert-butyl-5-(2,6-difluorophenyl)-4-{[2-methoxy-5-(trifluoromethyl)pyridin-3-yl]methoxy}-1-{[(propan-2-yl)oxy]carbonyl}pyrrolidine-2-carboxylic acid]
1000 to 10000 nM	1000 to 10000 nM	+++ (≥350)	++ (≥100 and <200)	COc1ncc(C2CCC2)cc1CO[C@H]1[C@H](C(C)(C)C)[C@@H](C(=O)O)N(C(=O)OC(C)C)[C@H]1c1ccccc1C1CC1 [Example 168, (2S,3R,4S,5S)-3-tert-butyl-4-[(5-cyclobutyl-2-methoxypyridin-3-yl)methoxy]-5-(2-cyclopropylphenyl)-1-{[(propan-2-yl)oxy]carbonyl}pyrrolidine-2-carboxylic acid]
1000 to 10000 nM	1000 to 10000 nM	+++ (≥350)	+++ (≥200)	COc1ncc(C2CCC2)cc1CO[C@H]1[C@H](C(C)(C)C)[C@@H](C(=O)O)N(C(=O)C2CCCCC2)[C@H]1c1cccnc1OC(C)C [Example 169, (2S,3R,4S,5S)-3-tert-butyl-4-[(5-cyclobutyl-2-methoxypyridin-3-yl)methoxy]-1-(cyclohexanecarbonyl)-5-{2-[(propan-2-yl)oxy]pyridin-3-yl}pyrrolidine-2-carboxylic acid]
